Measurements taken from US20230286983A1 (4E Therapeutics, Inc., priority 2020, published 2023).
Where “and” joins values, the source holds several entries; their conditions need not be identical. Equal values may be shown once. Read-outs that look alike come from different tables or passages of the source. One block for each compound: values may come before it.

Key:
[1] = system: IL-6 evoked grimace; assay: IL-6 evoked grimace test; assay type: in vivo, ICR mice
Procedure: Institute for Cancer Research (ICR) mice were used in these experiments. Mice were bred in house at University of Texas at Dallas and used at between 12 and 24 weeks of age. Mice were habituated to plexiglass boxes of approximately 4×6 inches in size with openable tops. Habituation took place over 2 days with animals exposed to the boxes for at least 30 min. A blinded observer scored baseline grimacing using the method previously described by Mogil and colleagues (Langford, et al., Coding of facial expressions of pain in the laboratory mouse. Nat Methods (2010) 7:447-449.). On test day, mice were given test compounds 1 hr prior to injection of interleukin 6 (human recombinant IL-6, R&D Systems) which was given at a dose of 0.1 ng in saline via an intraplantar injection as described previously (Moy et al. The MNK-eIF4E Signaling Axis Contributes to Injury-Induced Nociceptive Plasticity and the Development of Chronic Pain. J Neurosci (2017) 37:7481-7499.). Test compounds were given orally (PO) via a flexible oral gavage canula built for mice. 4ET-01-021 (10.0, 3.0, and 1.0 mg/kg) and 4ET-03-052B (10.0 mg/kg) are efficacious in the IL-6 evoked grimace test in mice. FIG. 5 depicts a comparison of effect size in the IL-6 evoked grimace test. Effect sizes were calculated per mouse by subtracting the baseline grimace score from the sum of the grimace scores for 1 and 3 hr time points. […] FIG. 6 is a graph showing the effect size in the IL-6 evoked grimace test vs. dose of 4ET-01-021.

[2] = system: p-eIF4E; assay: Western blot of eIF4E and p-eIF4E in tissues, 4ET-03-009; assay type: in vivo, mice; conditions: 10 mg/kg oral, 2 hours after dosing, vs vehicle
Procedure: In separate mice administered the same therapy, 2 hours after dosing tissues were harvested from the sciatic nerve, liver, brain, and DRG and homogenized, then subjected to Western blot analysis for eIF4E and p-eIF4E. Control mice administered only the solvent vehicle with no MNK inhibitor were also assayed. Amounts of p-eIF4E in each tissue based on the mean for all three mice administered the therapeutic and based on the mean for all three control mice are presented in FIG. 2, right panel. […] Units on the y-axis are % of signal standardized to the control.

[3] = molecular target: T1, death-associated protein kinase-related apoptosis-inducing protein kinase 1 (DRAK1) (Homo sapiens, UniProt Q9UEE5); assay: Off-target kinase screen DRAK1; assay type: biochemical; conditions: 1 μM test compound
T1 sequence (Q9UEE5 1-414): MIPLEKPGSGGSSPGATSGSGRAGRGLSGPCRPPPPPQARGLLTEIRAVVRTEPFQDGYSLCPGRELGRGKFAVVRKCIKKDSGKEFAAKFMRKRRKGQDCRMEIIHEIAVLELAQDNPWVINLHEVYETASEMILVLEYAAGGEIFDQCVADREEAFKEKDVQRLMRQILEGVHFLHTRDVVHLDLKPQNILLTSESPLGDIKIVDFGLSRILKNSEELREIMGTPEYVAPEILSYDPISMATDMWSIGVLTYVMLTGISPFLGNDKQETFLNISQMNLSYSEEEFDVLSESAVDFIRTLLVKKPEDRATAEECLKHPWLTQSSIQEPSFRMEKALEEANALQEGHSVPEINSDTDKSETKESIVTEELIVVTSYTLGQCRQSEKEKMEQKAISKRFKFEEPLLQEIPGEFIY
From the text: These kinases were chosen because they are the only known off-target hit kinases for eFT508. These assays were done using recombinant human kinases (CLK4, DRAK1 and PKG2) in a substrate phosphorylation assay. % activity remaining after MNK inhibitor treatment is indicated in Table 12.

[4] = Pharmacokinetic study, 4ET-03-009 at 10 mg/kg oral; assay type: in vivo, CD-1 male mice; conditions: for AUCinf/D / Cmax/D: dose normalized; for concentration at 24 hours: read-out: Clast
Procedure: Compound 4ET-03-009 was dissolved in a 10% dimethylacetamide (DMA)/[…] solvent. CD-1 male mice were orally dosed with 10 mg/kg of compound 4ET-03-009 in 20 mL/kg of liquid. Plasma was collected at indicated timepoints and plasma concentration of compound 4ET-03-009 was measured using liquid chromatography-mass spectrometry/mass spectrometry (LC-MS/MS). Results are presented in FIG. 1 and Tables 3, 4, and 5.

[5] = system: eIF4E phosphorylation at Serine 209 in the human osteosarcoma (U2OS) cell line; assay: eIF4E phosphorylation in U2OS cells (fluorescent plate reader); assay type: cell-based; conditions: Homo sapiens, U2OS; eIF4E phosphorylation at Serine 209, 2 hours exposure
Procedure: The ability of MNK inhibitors described herein to inhibit eIF4E phosphorylation at Serine 209 in the human osteosarcoma (U2OS) cell line was tested by exposing the cells to compound for 2 hours and then measuring eIF4E phosphorylation with a phosphorylation-specific antibody in a fluorescent plate reader.

[6] = male, CD-1, mouse, plasma, po, 10 mg/kg, Mean (n = 3)
[7] = male, CD-1, mouse, plasma, po, 10 mg/kg, individual animals

SMILES: CCC1=CC2(CCC1)NC(=O)c1c(C)cc(Nc3cc(N)ncn3)c(=O)n12 (centres unmarked) [Compound 4ET-01-021, 6′-((6-Aminopyrimidin-4-yl)amino)-3-ethyl-8′-methyl-2′H-spiro[cyclohexane-1,3′-imidazo[1,5-a]pyridin]-2-ene-1′,5′-dione]
- ED50 ([1]; Mus musculus, PO, effect size vs. dose): 0.4 mg/kg
- efficacy in the IL-6 evoked grimace test ([1]; PO 1 hr prior to IL-6, 4ET-01-021 10.0, 3.0 and 1.0 mg/kg, 4ET-03-052B 10.0 mg/kg): efficacious
- effect size in the IL-6 evoked grimace test ([1]; sum of grimace scores at 1 and 3 hr minus baseline): statistically-significant effect sizes

- Plasma Conc. (per mouse n = 3) ([4]; 0.083 hours): 85.3 ng/mL and 106 ng/mL
- Plasma Conc. (per mouse n = 3) ([4]; 0.25 hours): 147 ng/mL and 161 ng/mL
- Plasma Conc. (per mouse n = 3) ([4]; 0.5 hours): 270 ng/mL and 205 ng/mL
- Plasma Conc. (per mouse n = 3) ([4]; 1 hours): 318 ng/mL and 233 ng/mL
- Plasma Conc. (per mouse n = 3) ([4]; 2 hours): 271 ng/mL and 216 ng/mL
- Plasma Conc. (per mouse n = 3) ([4]; 4 hours): 169 ng/mL and 124 ng/mL
- Plasma Conc. (per mouse n = 3) ([4]; 6 hours): 80.2 ng/mL and 70.6 ng/mL
- Plasma Conc. (per mouse n = 3) ([4]; 8 hours): 62.9 ng/mL and 53.9 ng/mL
- Plasma Conc. (per mouse n = 3) ([4]; 24 hours): 2.28 ng/mL and 1.84 ng/mL
- Tlast ([4]; Mean (n = 3)): 24.0 h
- t1/2 ([4]; Mean (n = 3)): 3.46 h
- AUCinf/D ([4]; Mean (n = 3)): 162 kg·h/kL
- Cmax/D ([4]; Mean (n = 3)): 29.4 kg/kL
- AUC0-8 hours ([4]; individual animals): 1349 ng·h/mL and 1066 ng·h/mL
- AUCinf ([4]; individual animals): 1882 ng·h/mL and 1520 ng·h/mL
- AUClast ([4]; individual animals): 1870 ng·h/mL and 1511 ng·h/mL
- Clast ([4]; individual animals): 2.28 ng/mL and 1.84 ng/mL
- Cmax ([4]; individual animals): 318 ng/mL and 233 ng/mL
- MRTinf ([4]; individual animals): 4.64 h and 4.74 h
- Tlast ([4]; individual animals): 24.0 h
- t1/2 ([4]; individual animals): 3.44 h and 3.37 h
- Cmax/D ([4]; individual animals): 33.1 kg/kL and 31.8 kg/kL and 23.3 kg/kL
- Tmax ([4]; male, CD-1, mouse, plasma, individual animals): 1 h
- concentration at 0.083 h ([4]; male, CD-1, mouse, plasma, oral, 10 mg/kg, 0.083 hours, mean n = 3, read-out: Plasma Conc. Mean): 90.4 ng/mL
- concentration at 0.083 h ([4]; male, CD-1, mouse, plasma, oral, 10 mg/kg, 0.083 hours, read-out: Plasma Conc. (per mouse n = 3)): 79.8 ng/mL
- concentration at 0.25 h ([4]; male, CD-1, mouse, plasma, oral, 10 mg/kg, 0.25 hours, mean n = 3, read-out: Plasma Conc. Mean): 138 ng/mL
- concentration at 0.25 h ([4]; male, CD-1, mouse, plasma, oral, 10 mg/kg, 0.25 hours, read-out: Plasma Conc. (per mouse n = 3)): 106 ng/mL
- concentration at 0.5 hours ([4]; male, CD-1, mouse, plasma, oral, 10 mg/kg, 0.5 hours, mean n = 3, read-out: Plasma Conc. Mean): 226 ng/mL
- concentration at 0.5 h ([4]; male, CD-1, mouse, plasma, oral, 10 mg/kg, 0.5 hours, read-out: Plasma Conc. (per mouse n = 3)): 202 ng/mL
- concentration at 1 h ([4]; male, CD-1, mouse, plasma, oral, 10 mg/kg, 1 hours, mean n = 3, read-out: Plasma Conc. Mean): 294 ng/mL
- concentration at 1 h ([4]; male, CD-1, mouse, plasma, oral, 10 mg/kg, 1 hours, read-out: Plasma Conc. (per mouse n = 3)): 331 ng/mL
- concentration at 2 h ([4]; male, CD-1, mouse, plasma, oral, 10 mg/kg, 2 hours, mean n = 3, read-out: Plasma Conc. Mean): 255 ng/mL
- concentration at 2 h ([4]; male, CD-1, mouse, plasma, oral, 10 mg/kg, 2 hours, read-out: Plasma Conc. (per mouse n = 3)): 227 ng/mL
- concentration at 4 h ([4]; male, CD-1, mouse, plasma, oral, 10 mg/kg, 4 hours, mean n = 3, read-out: Plasma Conc. Mean): 132 ng/mL
- concentration at 4 h ([4]; male, CD-1, mouse, plasma, oral, 10 mg/kg, 4 hours, read-out: Plasma Conc. (per mouse n = 3)): 104 ng/mL
- concentration at 6 h ([4]; male, CD-1, mouse, plasma, oral, 10 mg/kg, 6 hours, mean n = 3, read-out: Plasma Conc. Mean): 66.7 ng/mL
- concentration at 6 h ([4]; male, CD-1, mouse, plasma, oral, 10 mg/kg, 6 hours, read-out: Plasma Conc. (per mouse n = 3)): 49.3 ng/mL
- concentration at 8 h ([4]; male, CD-1, mouse, plasma, oral, 10 mg/kg, 8 hours, mean n = 3, read-out: Plasma Conc. Mean): 52.5 ng/mL
- concentration at 8 h ([4]; male, CD-1, mouse, plasma, oral, 10 mg/kg, 8 hours, read-out: Plasma Conc. (per mouse n = 3)): 40.6 ng/mL
- concentration at 24 h ([4]; male, CD-1, mouse, plasma, oral, 10 mg/kg, 24 hours, mean n = 3, read-out: Plasma Conc. Mean): 1.92 ng/mL
- concentration at 24 h ([4]; male, CD-1, mouse, plasma, oral, 10 mg/kg, 24 hours, read-out: Plasma Conc. (per mouse n = 3)): 1.64 ng/mL
- concentration at 24 hours ([4]; male, CD-1, mouse, plasma, oral, 10 mg/kg, Mean (n = 3)): 1.92 ng/mL
- concentration at 24 hours ([4]; male, CD-1, mouse, plasma, oral, 10 mg/kg, individual animals): 1.64 ng/mL
- AUC(0-inf) [4, 6]: 1620 ng·h/mL
- MRT inf [4, 6]: 4.5 h
- half-life [4, 6]: 3.5 h
- AUC(0-t) ([4]; male, CD-1, mouse, plasma, po, 10 mg/kg, Mean (n = 3), read-out: AUC0-8 hours): 1180 ng·h/mL
- AUC(0-t) ([4]; male, CD-1, mouse, plasma, po, 10 mg/kg, Mean (n = 3), read-out: AUClast): 1610 ng·h/mL
- Cmax ([4]; male, CD-1, mouse, plasma, po, 10 mg/kg, Mean (n = 3), read-out: Cmax): 294 ng/mL
- AUC(0-inf) ([4]; male, CD-1, mouse, plasma, po, 10 mg/kg, for the study): 1620 ng·h/mL
- Cmax ([4]; male, CD-1, mouse, plasma, po, 10 mg/kg, for the study, read-out: Cmax): 716 nM
- AUC(0-inf) [4, 7]: 1460 ng·h/mL
- MRT inf [4, 7]: 4.12 h
- half-life [4, 7]: 3.58 h
- AUC(0-t) ([4]; male, CD-1, mouse, plasma, po, 10 mg/kg, individual animals, read-out: AUC0-8 hours): 1120 ng·h/mL
- AUC(0-t) ([4]; male, CD-1, mouse, plasma, po, 10 mg/kg, individual animals, read-out: AUClast): 1460 ng·h/mL
- Cmax ([4]; male, CD-1, mouse, plasma, po, 10 mg/kg, individual animals, read-out: Cmax): 331 ng/mL
- IC50 [5]: 1.7 nM
SMILES: Cc1cc(Nc2cc(NC(=O)C3CC3)ncn2)c(=O)n2c1C(=O)NC21CCOCC1 [Compound 4ET-03-009, N-(6-((8-Methyl-1,5-dioxo-1,2′,3′,5,5′,6′-hexahydro-2H-spiro[imidazo[1,5-a]pyridine-3,4′-pyran]-6-yl)amino)pyrimidin-4-yl)cyclopropanecarboxamide]
- p-eIF4E in sciatic nerve, liver, brain and DRG [2]: significantly decreased peIF4E in all tissues assayed
- remaining activity at 1 µM [3]: 16%
- abnormal clinical symptoms during the study [4]: No abnormal clinical symptoms were observed
- AUCinf/D ([4]; individual animals): 147 kg·h/kL and 188 kg·h/kL and 152 kg·h/kL
